# Experimental data: patent publication US20080155704A1, “Methods and Compositions for Determining in vivo Activity of BiP” (King's College London, priority 2006, published 2008)
# Tests used:
# [1] = system: autologous responder T cells; assay: Regulatory T cell activity after co-culture with DC(BiP): responder T cell proliferation to anti-CD3; type: cell-based, human
# Experimental: FIG. 12: Co-culture with BiP-treated dendritic cells (DC) leads T cells to have regulatory function. After 4d pre-incubation with either autologous or allogeneic DC, or DC(BiP), T cells were washed and set up in autologous cultures with irradiated peripheral blood mononuclear cells (PBMC) and responder T cells (1:1:1 ratio) (105 cells each/well) in the presence or absence of anti-CD3 antibody (1/2000 dilution). […] (B) a representative experiment showing an autologous experiment using Δ counts per minute (Δcpm) (stimulated-unstimulated cpm) following stimulation with anti-CD3 antibody to irradiated PBMC (irMC) or responder T cells (rT) alone and cultures with irMC+rT+T cells prestimulated (pT) by autologous DC populations as indicated; (C) mean ±standard deviation of unstimulated and stimulated cultures from a representative experiment where autologous irMC+rT+pT, previously cocultured with allogeneic DC populations as indicated, were present in ratio 1:1:1.
# Purified T cells (>95% T cells) (2.10^6/well) either autologous or allogeneic were cultured in the absence or presence of irradiated DC populations in 24-well flat-bottomed plates at a IDC: 10 T cell ratio for 4 days. […]
# [2] = system: human rheumatoid arthritis synovial membrane (RASM); assay: Human RASM transplanted in SCID mice (RASM/SCID chimeric mouse); type: in vivo, human tissue in SCID mice
# Experimental: Small pieces of human synovial tissue from patients with rheumatoid arthritis were transplanted into SCID mice. […] CD86, HLA-DR, TNFα and IL-6 expression was measured by immunohistology. (B) the weight of explants retrieved from the mice treated as indicated after 12d.
# This study used the previously developed SCID-HuRAg murine model (20). Briefly, pannus tissue, consisting of the leading edge of the invading synovial membrane into articular cartilage and bone, was collected as a single mass from RA patients at the time of arthroplastic surgery with full ethical approval. A block of 4-8 mm in diameter was implanted subcutaneously into the back of 6- to 7-week-old male SCID mice (CB.17/Icr; Charles River Japan, Tokyo, Japan), which had been bred under specific pathogen-free conditions. Successful implantation of human RA tissue was assessed visually 4 weeks after implantation, after which therapeutic manipulation of the mice was undertaken. […] The mice were sacrificed 12 days after injection to allow removal of the implanted tissue.
# The degree of synovial inflammation of the implanted tissue was assessed as previously described. The histological findings were scored according to two different scoring systems: Koizumi's (40) or Rooney's method (41).
# Paraffin embedded tissue sections were used for immunostaining for CD86 and HLA-DR. Frozen tissue sections were stained for the detection of cytokines (TNF, IL-1, IL-6, and IL-10). The tissue sections were blocked for endogenous peroxidase activity with 0.3% hydrogen peroxide in methanol for 15 min. Non-specific antibody binding was blocked with 10% normal goat serum for 1 hr at room temperature. The sections were incubated with specific antibody or normal IgG for 1 hr at 37° C. The sections incubated with anti-CD86 antibody were treated with biotinylated secondary antibody, then visualised using a kit (Vectastatin ABC kit, Vector) with 3-amino-n-ethylcarbazole (Nichirei, Tokyo) as a substrate. The other sections were treated with peroxidase-conjugated anti-mouse IgG (Histofine Simple Stain MAX PO; Nichirei, Tokyo) for 30 min at room temperature and developed with 3-amino-n-ethylcarbazole (Nichirei, Tokyo) for visualization. Sections were counterstained with Mayer haematoxylin for 10 sec and mounted in aqueous permanent mounting solution (Nichirei, Tokyo).
# The serum levels of human IL-4, IL-6 and IL-10 were measured by a quantitative sandwich enzyme immunoassay technique (Quantikine HS, R&D systems) according to the manufacturer's instructions.
# [3] = 10 μg/mouse single i.v. injection, 12 days
# [4] = BiP 10 μg/animal i.v., 12d (FIG. 15A)
substance,measurement,setting,value
BiP: 78 kD endoplasmic reticulum chaperone protein as disclosed in WO 00/21995; recombinant human protein,% inhibition of responder T cell proliferation to anti-CD3 antibody,"[1]; T cells from 4d co-culture with allogeneic DC(BiP), n=3",28.7±13.3 % inhibition
same,% inhibition of responder T cell proliferation to anti-CD3 antibody,"[1]; T cells from 4d co-culture with autologous DC(BiP), n=5",63.8±13.7 % inhibition
same,human IL-6 in mouse sera,"[2]; 10 μg/mouse i.v., 12 days",0.5 ± 0.2 pg/mL
same,Koizumi score of synovial inflammation,[2]; [3],6.1±2.6
same,Rooney score of synovial inflammation,[2]; [3],16±6
same,IL-10 in explants,"[2]; BiP 10 μg/animal i.v., 12d",no increase in IL-10 was detected
same,expression of CD86 and HLA-DR in explant sections (immunohistology),[2]; [4],Significantly reduced expression of CD86 and HLA-DR
same,production of human TNFα and IL-6 in explants (immunohistology),[2]; [4],decreased production of human TNFα and IL-6
